This passage reports residual activity results from the kinase profiling compilation of Christmann-Franck et al. (2016).

The first test concerns the target FGFR3 (human) (UniProt P22607). Kind of test: radiometric filter-binding kinase assay, Kinase HotSpot. Particulars: compound 0.5 µM; ATP 10 µM.
Consider `CC(=O)c1ccc(N2CCOCC2)cc1O`, for which the residual activity came out at 105%.
On the same count and under the same terms, to `Cc1ccc(NC2=CC(=O)c3sc(C)nc3C2=O)cc1` belongs 86%.
In the case of `CCN(CC)C(=O)c1ccc(Nc2nc(OCC3CCCCC3)c3nc[nH]c3n2)cc1`, the residual activity is 66.9%.

In the next test the target is KIT (human) (UniProt P10721). The test is described as above. Particulars: compound 0.5 µM; ATP 10 µM.
With `CC(=O)c1ccc(N2CCOCC2)cc1O`, the residual activity stood at 102%.
Still for that read-out and setting: to `Cc1ccc(NC2=CC(=O)c3sc(C)nc3C2=O)cc1` belongs 74.7%; to `CCN(CC)C(=O)c1ccc(Nc2nc(OCC3CCCCC3)c3nc[nH]c3n2)cc1`, 40.7%.

The target of another test is PLK3 (human) (UniProt Q9H4B4). The description is as above. Particulars: compound 0.5 µM; ATP 10 µM.
PLK3 (human), sequence (Q9H4B4 whole entry, looked up): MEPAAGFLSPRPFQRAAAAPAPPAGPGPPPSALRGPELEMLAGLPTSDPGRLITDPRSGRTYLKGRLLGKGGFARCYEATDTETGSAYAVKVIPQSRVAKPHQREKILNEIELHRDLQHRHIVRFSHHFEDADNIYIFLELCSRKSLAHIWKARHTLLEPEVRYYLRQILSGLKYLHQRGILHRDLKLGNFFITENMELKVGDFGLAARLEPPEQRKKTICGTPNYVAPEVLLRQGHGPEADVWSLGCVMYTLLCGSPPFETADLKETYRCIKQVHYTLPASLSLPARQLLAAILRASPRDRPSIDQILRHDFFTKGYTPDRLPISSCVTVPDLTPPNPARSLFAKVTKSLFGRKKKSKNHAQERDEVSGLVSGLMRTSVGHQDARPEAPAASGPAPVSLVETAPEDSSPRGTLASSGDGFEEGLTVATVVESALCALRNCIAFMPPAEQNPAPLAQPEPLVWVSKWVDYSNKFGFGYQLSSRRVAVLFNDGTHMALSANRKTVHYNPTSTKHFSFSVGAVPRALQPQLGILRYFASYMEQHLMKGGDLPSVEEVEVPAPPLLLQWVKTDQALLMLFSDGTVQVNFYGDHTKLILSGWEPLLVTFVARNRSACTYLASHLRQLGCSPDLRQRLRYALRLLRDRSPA
On to `CC(=O)c1ccc(N2CCOCC2)cc1O`, for which the residual activity worked out at 98.1%.
Turning to `Cc1ccc(NC2=CC(=O)c3sc(C)nc3C2=O)cc1`, the residual activity was determined as 94.5%.
Same read-out and setting: for `CCN(CC)C(=O)c1ccc(Nc2nc(OCC3CCCCC3)c3nc[nH]c3n2)cc1` the value was 98.1%.

A further test addresses SLK (human) (UniProt Q9H2G2). The description is as above. Particulars: compound 0.5 µM; ATP 10 µM.
With `CC(=O)c1ccc(N2CCOCC2)cc1O`, the residual activity was 105%.
On the same count and under the same terms, to `Cc1ccc(NC2=CC(=O)c3sc(C)nc3C2=O)cc1` belongs 80.6%.
Still for that read-out and setting: to `CCN(CC)C(=O)c1ccc(Nc2nc(OCC3CCCCC3)c3nc[nH]c3n2)cc1` belongs 71.2%.

A further test addresses IRAK4 (human) (UniProt Q9NWZ3). The test is described as above. Particulars: compound 0.5 µM; ATP 10 µM.
Turning to `CC(=O)c1ccc(N2CCOCC2)cc1O`, the residual activity is 120%.
As to `Cc1ccc(NC2=CC(=O)c3sc(C)nc3C2=O)cc1`, the residual activity amounted to 124%.
As to `CCN(CC)C(=O)c1ccc(Nc2nc(OCC3CCCCC3)c3nc[nH]c3n2)cc1`, the residual activity came to 92.4%.

The target in the next test is CLK4 (human) (UniProt Q9HAZ1). The description is as above. Particulars: compound 0.5 µM; ATP 10 µM.
`CC(=O)c1ccc(N2CCOCC2)cc1O`: the residual activity came to 111%.
Still for that read-out and setting: to `Cc1ccc(NC2=CC(=O)c3sc(C)nc3C2=O)cc1` belongs 99.1%.
As for `CCN(CC)C(=O)c1ccc(Nc2nc(OCC3CCCCC3)c3nc[nH]c3n2)cc1`, the residual activity came out at 44.2%.

A further test addresses PTK2 (human) (UniProt Q05397). Described as above. Particulars: compound 0.5 µM; ATP 10 µM.
On to `CC(=O)c1ccc(N2CCOCC2)cc1O`, for which the residual activity is 107%.
Still for that read-out and setting: to `Cc1ccc(NC2=CC(=O)c3sc(C)nc3C2=O)cc1` belongs 102%; to `CCN(CC)C(=O)c1ccc(Nc2nc(OCC3CCCCC3)c3nc[nH]c3n2)cc1`, 76.9%.

A further test deals with EPHB2 (human) (UniProt P29323). Described as above. Particulars: compound 0.5 µM; ATP 10 µM.
Turning to `CC(=O)c1ccc(N2CCOCC2)cc1O`, the residual activity was determined as 82.5%.
As for `Cc1ccc(NC2=CC(=O)c3sc(C)nc3C2=O)cc1`, the residual activity stood at 100%.
As for `CCN(CC)C(=O)c1ccc(Nc2nc(OCC3CCCCC3)c3nc[nH]c3n2)cc1`, the residual activity turned out to be 93.7%.

For another test, the target named is SRMS (human) (UniProt Q9H3Y6). Described as above. Particulars: compound 0.5 µM; ATP 10 µM.
Turning to `CC(=O)c1ccc(N2CCOCC2)cc1O`, the residual activity was determined as 94.7%.
`Cc1ccc(NC2=CC(=O)c3sc(C)nc3C2=O)cc1`: the residual activity was found to be 82.4%.
On the same count and under the same terms, to `CCN(CC)C(=O)c1ccc(Nc2nc(OCC3CCCCC3)c3nc[nH]c3n2)cc1` belongs 84.7%.

The next test deals with PDGFRB (human) (UniProt P09619). The description is as above. Particulars: compound 0.5 µM; ATP 10 µM.
PDGFRB (human), sequence (P09619 whole entry, looked up): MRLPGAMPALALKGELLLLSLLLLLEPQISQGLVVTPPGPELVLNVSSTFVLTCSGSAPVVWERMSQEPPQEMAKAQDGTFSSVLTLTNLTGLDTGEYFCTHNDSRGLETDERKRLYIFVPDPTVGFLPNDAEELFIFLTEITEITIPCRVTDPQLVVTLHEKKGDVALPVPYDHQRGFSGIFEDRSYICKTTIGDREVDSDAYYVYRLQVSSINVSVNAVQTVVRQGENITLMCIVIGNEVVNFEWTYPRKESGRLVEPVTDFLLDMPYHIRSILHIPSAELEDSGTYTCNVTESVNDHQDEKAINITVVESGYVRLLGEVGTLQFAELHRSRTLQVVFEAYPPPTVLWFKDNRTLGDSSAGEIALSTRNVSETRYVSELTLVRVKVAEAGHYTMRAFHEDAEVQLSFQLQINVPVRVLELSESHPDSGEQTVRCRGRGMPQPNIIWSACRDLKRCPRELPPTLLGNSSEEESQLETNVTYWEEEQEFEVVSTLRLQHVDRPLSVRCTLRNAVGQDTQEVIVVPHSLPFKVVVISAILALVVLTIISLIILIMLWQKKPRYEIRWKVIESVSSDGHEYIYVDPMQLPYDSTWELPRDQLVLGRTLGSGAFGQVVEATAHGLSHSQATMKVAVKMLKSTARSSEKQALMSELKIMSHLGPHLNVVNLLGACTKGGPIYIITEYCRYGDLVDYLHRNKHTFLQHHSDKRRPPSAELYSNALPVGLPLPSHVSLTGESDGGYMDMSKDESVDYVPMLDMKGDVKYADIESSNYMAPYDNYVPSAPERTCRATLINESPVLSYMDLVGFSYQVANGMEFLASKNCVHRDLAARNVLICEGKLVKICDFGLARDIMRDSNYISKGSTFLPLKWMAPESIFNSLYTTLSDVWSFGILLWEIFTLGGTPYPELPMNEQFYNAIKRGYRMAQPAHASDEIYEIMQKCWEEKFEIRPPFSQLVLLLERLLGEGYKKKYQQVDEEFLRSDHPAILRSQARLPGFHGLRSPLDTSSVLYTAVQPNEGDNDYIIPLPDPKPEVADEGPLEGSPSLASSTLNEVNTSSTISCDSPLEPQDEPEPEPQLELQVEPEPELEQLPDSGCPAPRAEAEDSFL
As for `CC(=O)c1ccc(N2CCOCC2)cc1O`, the residual activity came to 105%.
Take `Cc1ccc(NC2=CC(=O)c3sc(C)nc3C2=O)cc1`: the residual activity stood at 94.5%.
`CCN(CC)C(=O)c1ccc(Nc2nc(OCC3CCCCC3)c3nc[nH]c3n2)cc1`: the residual activity came to 54.6%.

The target in the next test is MLTK (human) (UniProt Q9NYL2). The test is described as above. Particulars: compound 0.5 µM; ATP 10 µM.
MLTK (human), sequence (Q9NYL2 whole entry, looked up): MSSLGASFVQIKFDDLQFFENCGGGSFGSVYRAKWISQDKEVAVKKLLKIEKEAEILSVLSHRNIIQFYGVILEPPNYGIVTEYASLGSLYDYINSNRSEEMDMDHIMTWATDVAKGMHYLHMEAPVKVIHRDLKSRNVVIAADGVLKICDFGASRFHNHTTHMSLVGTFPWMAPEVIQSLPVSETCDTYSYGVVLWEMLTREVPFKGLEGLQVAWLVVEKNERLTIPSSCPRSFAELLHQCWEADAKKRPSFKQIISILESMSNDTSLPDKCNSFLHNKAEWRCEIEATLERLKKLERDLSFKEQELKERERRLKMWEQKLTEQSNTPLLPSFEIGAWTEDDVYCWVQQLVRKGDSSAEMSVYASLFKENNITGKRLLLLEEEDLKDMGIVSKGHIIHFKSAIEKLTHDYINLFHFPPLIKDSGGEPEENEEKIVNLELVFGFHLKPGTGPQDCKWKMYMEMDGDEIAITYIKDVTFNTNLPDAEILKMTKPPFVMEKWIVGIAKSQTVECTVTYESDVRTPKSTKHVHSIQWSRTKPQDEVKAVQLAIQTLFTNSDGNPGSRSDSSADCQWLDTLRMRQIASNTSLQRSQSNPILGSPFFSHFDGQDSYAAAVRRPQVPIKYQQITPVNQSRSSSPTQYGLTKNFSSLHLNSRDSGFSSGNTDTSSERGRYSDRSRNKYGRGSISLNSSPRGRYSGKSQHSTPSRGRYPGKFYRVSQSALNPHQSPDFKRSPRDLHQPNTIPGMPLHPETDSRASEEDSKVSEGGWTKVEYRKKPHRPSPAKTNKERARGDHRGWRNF
Take `CC(=O)c1ccc(N2CCOCC2)cc1O`: the residual activity was 97.8%.
On the same count and under the same terms, to `Cc1ccc(NC2=CC(=O)c3sc(C)nc3C2=O)cc1` belongs 94%; to `CCN(CC)C(=O)c1ccc(Nc2nc(OCC3CCCCC3)c3nc[nH]c3n2)cc1`, 91.4%.

The target of the next test is NEK1 (human) (UniProt Q96PY6). The description is as above. Particulars: compound 0.5 µM; ATP 10 µM.
Take `CC(=O)c1ccc(N2CCOCC2)cc1O`: the residual activity is 114%.
With `Cc1ccc(NC2=CC(=O)c3sc(C)nc3C2=O)cc1`, the residual activity amounted to 76.5%.
For `CCN(CC)C(=O)c1ccc(Nc2nc(OCC3CCCCC3)c3nc[nH]c3n2)cc1`, the residual activity came out at 53.1%.

The next test has as its target PTK6 (human) (UniProt Q13882). The description is as above. Particulars: compound 0.5 µM; ATP 10 µM.
With `CC(=O)c1ccc(N2CCOCC2)cc1O`, the residual activity is 104%.
On to `Cc1ccc(NC2=CC(=O)c3sc(C)nc3C2=O)cc1`, for which the residual activity worked out at 89.2%.
On to `CCN(CC)C(=O)c1ccc(Nc2nc(OCC3CCCCC3)c3nc[nH]c3n2)cc1`, for which the residual activity was 30.7%.

Another test deals with RPS6KA6 KD1 KD2 (human) (UniProt Q9UK32). The description is as above. Particulars: compound 0.5 µM; ATP 10 µM.
Take `CC(=O)c1ccc(N2CCOCC2)cc1O`: the residual activity came to 95.1%.
Still for that read-out and setting: for `Cc1ccc(NC2=CC(=O)c3sc(C)nc3C2=O)cc1` the value was 73.4%; for `CCN(CC)C(=O)c1ccc(Nc2nc(OCC3CCCCC3)c3nc[nH]c3n2)cc1`, 46.2%.

The target of another test is CSNK1A1 (human) (UniProt P48729). The description is as above. Particulars: compound 0.5 µM; ATP 10 µM.
CSNK1A1 (human), sequence (P48729 whole entry, looked up): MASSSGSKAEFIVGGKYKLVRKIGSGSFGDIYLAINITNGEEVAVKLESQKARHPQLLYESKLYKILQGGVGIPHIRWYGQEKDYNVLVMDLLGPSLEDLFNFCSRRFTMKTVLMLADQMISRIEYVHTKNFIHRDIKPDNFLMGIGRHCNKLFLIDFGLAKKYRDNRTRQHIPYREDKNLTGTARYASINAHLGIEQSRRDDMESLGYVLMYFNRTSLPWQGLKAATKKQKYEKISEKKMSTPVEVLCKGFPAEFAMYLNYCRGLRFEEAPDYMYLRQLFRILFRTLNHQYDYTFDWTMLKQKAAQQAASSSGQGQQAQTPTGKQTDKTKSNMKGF
For the molecule `CC(=O)c1ccc(N2CCOCC2)cc1O`, the residual activity came to 110%.
Still for that read-out and setting: to `Cc1ccc(NC2=CC(=O)c3sc(C)nc3C2=O)cc1` belongs 106%; to `CCN(CC)C(=O)c1ccc(Nc2nc(OCC3CCCCC3)c3nc[nH]c3n2)cc1`, 104%.

Another test addresses PRKCE (human) (UniProt Q02156). Described as above. Particulars: compound 0.5 µM; ATP 10 µM.
On to `CC(=O)c1ccc(N2CCOCC2)cc1O`, for which the residual activity was determined as 93.4%.
`Cc1ccc(NC2=CC(=O)c3sc(C)nc3C2=O)cc1`: the residual activity stood at 96.3%.
Turning to `CCN(CC)C(=O)c1ccc(Nc2nc(OCC3CCCCC3)c3nc[nH]c3n2)cc1`, the residual activity was 76.6%.

The target of the next test is MAPK14 (human) (UniProt Q16539). Described as above. Particulars: compound 0.5 µM; ATP 10 µM.
MAPK14 (human), sequence (Q16539 whole entry, looked up): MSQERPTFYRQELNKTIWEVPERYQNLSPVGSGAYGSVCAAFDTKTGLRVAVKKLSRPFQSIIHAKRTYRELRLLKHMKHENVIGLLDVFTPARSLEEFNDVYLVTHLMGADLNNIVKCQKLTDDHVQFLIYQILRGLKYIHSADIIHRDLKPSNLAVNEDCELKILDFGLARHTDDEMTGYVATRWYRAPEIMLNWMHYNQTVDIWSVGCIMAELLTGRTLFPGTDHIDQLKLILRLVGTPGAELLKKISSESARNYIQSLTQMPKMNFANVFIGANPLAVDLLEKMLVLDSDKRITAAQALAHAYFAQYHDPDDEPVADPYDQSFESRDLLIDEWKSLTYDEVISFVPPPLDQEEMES
Turning to `CC(=O)c1ccc(N2CCOCC2)cc1O`, the residual activity was 97.1%.
For `Cc1ccc(NC2=CC(=O)c3sc(C)nc3C2=O)cc1`, the residual activity is 92.4%.
Take `CCN(CC)C(=O)c1ccc(Nc2nc(OCC3CCCCC3)c3nc[nH]c3n2)cc1`: the residual activity is 94.7%.

The target of a further test is PRKG2 (human) (UniProt Q13237). Described as above. Particulars: compound 0.5 µM; ATP 10 µM.
PRKG2 (human), sequence (Q13237 whole entry, looked up): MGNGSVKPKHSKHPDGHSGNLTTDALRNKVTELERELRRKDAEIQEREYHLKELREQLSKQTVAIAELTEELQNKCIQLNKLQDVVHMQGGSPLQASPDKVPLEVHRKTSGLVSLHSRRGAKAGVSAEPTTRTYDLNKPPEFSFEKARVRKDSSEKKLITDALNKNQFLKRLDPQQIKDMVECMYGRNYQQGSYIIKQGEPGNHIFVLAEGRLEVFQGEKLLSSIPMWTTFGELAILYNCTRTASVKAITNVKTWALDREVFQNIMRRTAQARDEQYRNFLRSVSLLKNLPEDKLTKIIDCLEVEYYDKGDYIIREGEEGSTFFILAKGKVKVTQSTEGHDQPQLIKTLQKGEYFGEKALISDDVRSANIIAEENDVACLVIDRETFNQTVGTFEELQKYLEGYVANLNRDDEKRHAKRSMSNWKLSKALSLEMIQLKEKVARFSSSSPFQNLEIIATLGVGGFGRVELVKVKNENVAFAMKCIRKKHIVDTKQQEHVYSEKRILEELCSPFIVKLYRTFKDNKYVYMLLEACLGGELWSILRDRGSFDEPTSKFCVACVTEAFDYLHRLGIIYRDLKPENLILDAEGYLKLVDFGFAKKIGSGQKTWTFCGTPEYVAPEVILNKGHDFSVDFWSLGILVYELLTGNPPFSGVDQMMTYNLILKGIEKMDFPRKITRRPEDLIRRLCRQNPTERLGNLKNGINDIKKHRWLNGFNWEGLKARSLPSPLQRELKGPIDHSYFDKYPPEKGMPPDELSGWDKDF
`CC(=O)c1ccc(N2CCOCC2)cc1O`: the residual activity turned out to be 107%.
Still for that read-out and setting: to `Cc1ccc(NC2=CC(=O)c3sc(C)nc3C2=O)cc1` belongs 60.8%; to `CCN(CC)C(=O)c1ccc(Nc2nc(OCC3CCCCC3)c3nc[nH]c3n2)cc1`, 80%.

Another test deals with MAPK9 (human) (UniProt P45984). The description is as above. Particulars: compound 0.5 µM; ATP 10 µM.
MAPK9 (human), sequence (P45984 whole entry, looked up): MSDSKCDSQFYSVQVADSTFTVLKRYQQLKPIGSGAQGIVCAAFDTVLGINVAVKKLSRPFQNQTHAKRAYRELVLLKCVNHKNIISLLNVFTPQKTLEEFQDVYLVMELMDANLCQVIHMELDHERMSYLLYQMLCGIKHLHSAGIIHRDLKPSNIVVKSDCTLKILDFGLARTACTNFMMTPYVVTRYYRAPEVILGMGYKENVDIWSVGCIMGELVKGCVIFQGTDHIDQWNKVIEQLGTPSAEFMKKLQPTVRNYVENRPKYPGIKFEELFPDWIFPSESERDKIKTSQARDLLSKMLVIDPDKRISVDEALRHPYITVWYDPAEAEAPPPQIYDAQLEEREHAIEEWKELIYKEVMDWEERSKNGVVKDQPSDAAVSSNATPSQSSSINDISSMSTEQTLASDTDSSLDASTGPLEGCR
Consider `CC(=O)c1ccc(N2CCOCC2)cc1O`, for which the residual activity is 105%.
`Cc1ccc(NC2=CC(=O)c3sc(C)nc3C2=O)cc1`: the residual activity worked out at 96.5%.
Still for that read-out and setting: to `CCN(CC)C(=O)c1ccc(Nc2nc(OCC3CCCCC3)c3nc[nH]c3n2)cc1` belongs 60.8%.

In the next test the target is MAPKAPK2 (human) (UniProt P49137). Described as above. Particulars: compound 0.5 µM; ATP 10 µM.
MAPKAPK2 (human), sequence (P49137 whole entry, looked up): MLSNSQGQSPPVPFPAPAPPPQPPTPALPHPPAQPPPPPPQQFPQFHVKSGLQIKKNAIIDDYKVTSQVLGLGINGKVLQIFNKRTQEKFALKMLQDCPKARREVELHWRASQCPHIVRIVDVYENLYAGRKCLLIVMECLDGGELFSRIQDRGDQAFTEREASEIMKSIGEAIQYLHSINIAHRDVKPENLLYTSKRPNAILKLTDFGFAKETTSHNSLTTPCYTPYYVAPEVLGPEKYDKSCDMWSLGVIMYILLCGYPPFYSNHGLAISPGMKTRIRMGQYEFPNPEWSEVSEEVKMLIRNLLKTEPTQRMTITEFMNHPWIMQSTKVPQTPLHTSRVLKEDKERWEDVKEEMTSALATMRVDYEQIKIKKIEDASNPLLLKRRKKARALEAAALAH
Take `CC(=O)c1ccc(N2CCOCC2)cc1O`: the residual activity was 103%.
As for `Cc1ccc(NC2=CC(=O)c3sc(C)nc3C2=O)cc1`, the residual activity was determined as 97.6%.
With `CCN(CC)C(=O)c1ccc(Nc2nc(OCC3CCCCC3)c3nc[nH]c3n2)cc1`, the residual activity was found to be 99.2%.

The term residual activity denotes the signal under treatment as a percentage of the control signal.
